We go through 18 compounds from PubChem BioAssay (NCI).

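Following 48 hours of exposure in 96-well plates, responses at five concentrations were used to interpolate endpoints linearly. Here, GI50 denotes the concentration required for 50% inhibition of growth. Definition used: TGI = concentration required for complete inhibition of growth.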

Test systems include HOP-18 NSCLC; DLD-1 colon; M19-MEL melanoma; SNB-78 CNS; RXF-631 renal; DMS 114 small cell lung; DMS 273 small cell lung; MDA-MB-435; MDA-N.
Common to all, as to assay: DTP human tumour cell line panel, 48 h

The term TGI denotes the concentration giving total growth inhibition. A higher TGI goes with lower sensitivity of the cells. Regarding `NC1=NC(=O)C(CC(=O)Nc2ccc([N+](=O)[O-])cc2[N+](=O)[O-])S1` (configuration not stated), the TGI with HOP-18 NSCLC, in the assay on DLD-1 colon, in the assay on M19-MEL melanoma, in the assay on SNB-78 CNS, in the assay with RXF-631 renal and with DMS 114 small cell lung was over 100 µM each time.

On to `CN1CCN(C)C1c1cccc(C2N(C)CCN2C)c1`, for which the total growth inhibition concentration (TGI) in the assay with DLD-1 colon, in the assay on DMS 273 small cell lung, with M19-MEL melanoma, in the assay on SNB-78 CNS, with RXF-631 renal and with DMS 114 small cell lung was over 100 µM in each case.

In general, GI50 refers to the concentration that inhibits growth by half. Turning to `CC1=Nc2c(ccc3c2C(=O)c2ccccc2C3=O)NC(c2ccncc2)C1` (configuration not stated), the GI50 is over 100000 nM in the assay on HOP-18 NSCLC, over 100000 nM in the assay on DMS 273 small cell lung, over 100 µM in the assay on M19-MEL melanoma and over 100000 nM with SNB-78 CNS. Besides, the TGI in the assay with HOP-18 NSCLC, in the assay on DLD-1 colon, in the assay on DMS 273 small cell lung, with M19-MEL melanoma, in the assay with SNB-78 CNS and in the assay with RXF-631 renal was over 100 µM each time. In the assay with DMS 114 small cell lung, this compound displayed a TGI of over 100 µM.

On to `CC(=O)OCCOCBr`, for which the TGI with HOP-18 NSCLC, in the assay with DLD-1 colon, in the assay on DMS 273 small cell lung, in the assay with M19-MEL melanoma, with RXF-631 renal and in the assay on DMS 114 small cell lung was over 100 µM each time.

As to `COc1ccc(/C=C/C(=O)c2sc(-n3nc(-c4ccccc4)cc3-c3ccccc3)nc2C)cc1OC`, the TGI in the assay on HOP-18 NSCLC, in the assay on DLD-1 colon, in the assay with DMS 273 small cell lung, in the assay with M19-MEL melanoma, in the assay on RXF-631 renal and in the assay on DMS 114 small cell lung was over 100 µM throughout.

Turning to `c1cc[c]([Sn]([S]c2cccc3cccnc23)([c]2ccccc2)[c]2ccccc2)cc1`, the GI50 was 78.4 nM in the assay on HOP-18 NSCLC; 32.1 nM with DLD-1 colon; 17.3 nM in the assay with DMS 273 small cell lung; 20.3 nM with SNB-78 CNS; 25.6 nM in the assay with RXF-631 renal. For the same compound, the TGI in the assay with HOP-18 NSCLC amounted to 0.214 µM; with DLD-1 colon it was 0.101 µM; with DMS 273 small cell lung, 0.0344 µM; in the assay with M19-MEL melanoma, 0.172 µM; with SNB-78 CNS it was 0.0659 µM; in the assay on RXF-631 renal, 0.0804 µM.

As for `O=C1N[C@@H](O)[C@@H]2ON=C(c3ccccc3)[C@H]12`, the TGI with HOP-18 NSCLC, with DLD-1 colon, with DMS 273 small cell lung, with M19-MEL melanoma, with RXF-631 renal and in the assay on DMS 114 small cell lung was over 100 µM each time.

For `CN(C)C(=S)/N=c1\ss/c(=N\S(=O)(=O)c2ccccc2)n1-c1ccccc1`, the TGI in the assay on HOP-18 NSCLC, in the assay with DLD-1 colon, with DMS 273 small cell lung, in the assay on M19-MEL melanoma, with SNB-78 CNS and with RXF-631 renal was over 100 µM in each case. In the assay on DMS 114 small cell lung, this compound gave a total growth inhibition concentration (TGI) of 50.3 µM.

On to `Clc1ccc(CNc2nc3ccccc3nc2-c2cccs2)c(Cl)c1`, for which the TGI in the assay on HOP-18 NSCLC, with DMS 273 small cell lung, in the assay on M19-MEL melanoma, with SNB-78 CNS and in the assay on RXF-631 renal was over 100 µM in each case.

On to `O=C1c2ccccc2-c2cccc3ccc(Cc4ccccc4)c1c23`, for which the TGI in the assay with DLD-1 colon, with DMS 273 small cell lung, in the assay with M19-MEL melanoma, in the assay on SNB-78 CNS, with RXF-631 renal and in the assay on DMS 114 small cell lung was over 100 µM in each case.

Regarding `CCOc1cccc2nc3cccc(C(=O)NCCN(C)C)c3nc12`, the TGI in the assay with HOP-18 NSCLC is over 38.4 µM; with DLD-1 colon, 7.66 µM; in the assay on DMS 273 small cell lung, over 100 µM; in the assay with M19-MEL melanoma, 2.83 µM; with SNB-78 CNS, 9.3 µM; with RXF-631 renal, 10.5 µM. Also, the TGI in the assay on DMS 114 small cell lung was 3.7 µM.

Consider `CC(C)(C)C1(O)Cc2ccccc2C(=O)O1` (configuration not stated), for which the TGI with HOP-18 NSCLC, in the assay on DLD-1 colon, in the assay on DMS 273 small cell lung, in the assay with M19-MEL melanoma, in the assay on SNB-78 CNS and with RXF-631 renal was over 100 µM throughout. The TGI with DMS 114 small cell lung was over 100 µM.

Turning to `CC1(C)CCc2cc3c(cc2O1)OCCC3=O`, the TGI with HOP-18 NSCLC, with DLD-1 colon, with M19-MEL melanoma, with RXF-631 renal and with DMS 114 small cell lung was over 100 µM in each case.

Turning to `N#Cc1c(N)c(C(=O)O)nn(-c2cccc(C(F)(F)F)c2)c1=O`, the TGI with HOP-18 NSCLC, in the assay on DLD-1 colon, with M19-MEL melanoma, in the assay with SNB-78 CNS and with RXF-631 renal was over 100 µM each time.

For `COc1ccc2c(-c3cc4ccccc4o3)cc(=O)oc2c1`, the TGI in the assay on HOP-18 NSCLC, with DLD-1 colon, in the assay with DMS 273 small cell lung, with M19-MEL melanoma, with SNB-78 CNS and in the assay on MDA-MB-435 was over 100 µM throughout. Further, the TGI in the assay on MDA-N and with RXF-631 renal was over 100 µM each time.

Regarding `CC(=O)c1c(C)n([O-])c2cc(C)c(C)cc2[n+]1=O`, the TGI in the assay with HOP-18 NSCLC, in the assay with DLD-1 colon, in the assay with DMS 273 small cell lung, in the assay with M19-MEL melanoma, with SNB-78 CNS and with RXF-631 renal was over 100 µM in each case. This compound also returned a TGI in the assay on DMS 114 small cell lung of over 100 µM.

Regarding `O=c1c2ccccc2c2c3c1cccc3c1cccc3c(=O)c4ccccc4c2c31`, the TGI with HOP-18 NSCLC, in the assay on DLD-1 colon, in the assay with DMS 273 small cell lung, in the assay with M19-MEL melanoma, in the assay on SNB-78 CNS and in the assay on RXF-631 renal was over 100 µM throughout. In the assay on DMS 114 small cell lung, this compound came in with a TGI of over 100 µM.

Regarding `COc1ccc(C2C(N)=NCC2c2ccccn2)cc1` (configuration not stated), the TGI in the assay with HOP-18 NSCLC was 97.9 µM; in the assay on DLD-1 colon, over 100 µM; with M19-MEL melanoma it was over 100 µM; in the assay with SNB-78 CNS, over 100 µM; in the assay with RXF-631 renal, over 100 µM; in the assay with DMS 114 small cell lung, over 100 µM.
